# Test results from paper PMC6858497 (The Journal of physiology, 2019).
# Values joined by “and” are separate entries in the source; they are usually repeats but may differ in a detail not shown here. Equal values may be shown once.
# Experiments:
# Assay type in all cases: cell-based
# GluN1–1a/2D = GluN1–1a/2D (Rattus norvegicus, UniProt P35439+Q62645); test: Two-electrode voltage-clamp recordings, Xenopus oocytes
# GluN1–1a/2BC1/2DC2 = GluN1–1a/2BC1/2DC2 (Rattus norvegicus, UniProt P35439+Q00959+Q00960+Q62645, A876H/F846L/G856D/H848F/K857R/M851T/M860L/Q845K/R869K/V861L/V866F); test: as above; conditions: isoform 1a
# GluN1–1b/2B = GluN1–1b/2B (Rattus norvegicus, UniProt P35439+Q00960); test: as above; conditions: at 10 μM; isoform 1b
# GluN1–1b/2BC1/2DC2 = GluN1–1b/2BC1/2DC2 (Rattus norvegicus, UniProt P35439+Q00959+Q00960+Q62645, A876H/F846L/G856D/H848F/K857R/M851T/M860L/Q845K/R869K/V861L/V866F); test: as above; conditions: at 10 μM; isoform 1b
# GluN1–1b/2D = GluN1–1b/2D (Rattus norvegicus, UniProt P35439+Q62645); test: as above; conditions: at 10 μM; isoform 1b
# GluN1–1b/2D, sequence (Q62645 28-1323, other chains not shown): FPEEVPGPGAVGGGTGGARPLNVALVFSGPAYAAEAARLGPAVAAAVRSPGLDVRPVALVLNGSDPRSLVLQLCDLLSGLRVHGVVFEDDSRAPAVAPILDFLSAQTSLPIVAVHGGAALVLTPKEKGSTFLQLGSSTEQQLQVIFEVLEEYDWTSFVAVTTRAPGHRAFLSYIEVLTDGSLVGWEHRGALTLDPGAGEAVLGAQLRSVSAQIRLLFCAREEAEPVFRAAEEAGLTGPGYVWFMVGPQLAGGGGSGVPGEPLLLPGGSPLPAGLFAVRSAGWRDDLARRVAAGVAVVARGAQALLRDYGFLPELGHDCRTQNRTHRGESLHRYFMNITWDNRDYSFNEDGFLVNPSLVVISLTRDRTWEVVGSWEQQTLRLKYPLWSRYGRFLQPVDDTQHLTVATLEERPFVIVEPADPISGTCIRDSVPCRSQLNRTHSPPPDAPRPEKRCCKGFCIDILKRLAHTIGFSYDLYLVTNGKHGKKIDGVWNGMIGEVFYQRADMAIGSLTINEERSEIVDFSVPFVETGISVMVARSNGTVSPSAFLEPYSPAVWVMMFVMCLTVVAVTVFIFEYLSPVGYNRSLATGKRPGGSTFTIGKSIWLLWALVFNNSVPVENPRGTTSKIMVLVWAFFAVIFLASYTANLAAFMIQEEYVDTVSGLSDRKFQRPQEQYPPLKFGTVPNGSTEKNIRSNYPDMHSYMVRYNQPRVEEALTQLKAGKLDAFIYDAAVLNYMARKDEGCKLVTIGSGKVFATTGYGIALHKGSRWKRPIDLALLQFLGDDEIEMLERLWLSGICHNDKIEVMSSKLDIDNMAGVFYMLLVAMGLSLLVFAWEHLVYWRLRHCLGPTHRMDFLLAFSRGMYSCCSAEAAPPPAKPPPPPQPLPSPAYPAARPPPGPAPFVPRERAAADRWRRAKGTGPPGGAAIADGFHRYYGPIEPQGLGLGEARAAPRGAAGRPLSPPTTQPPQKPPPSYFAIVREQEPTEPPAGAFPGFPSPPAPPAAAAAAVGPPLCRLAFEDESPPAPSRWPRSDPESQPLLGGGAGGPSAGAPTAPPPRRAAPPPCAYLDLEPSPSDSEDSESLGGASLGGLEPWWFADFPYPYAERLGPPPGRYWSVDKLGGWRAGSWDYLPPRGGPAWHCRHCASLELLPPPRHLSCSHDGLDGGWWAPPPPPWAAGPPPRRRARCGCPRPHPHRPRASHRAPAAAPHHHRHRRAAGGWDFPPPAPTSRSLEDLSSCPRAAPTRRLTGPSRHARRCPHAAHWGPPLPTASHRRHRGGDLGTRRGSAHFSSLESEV
# GluN1–1a B/B = GluN1–1a B/B (Rattus norvegicus, UniProt P35439+Q00960); test: Outside-out patch-clamp recordings, fast application
# [1] = biological target: GluN1–1a A/A (GluN1/2A/2A) (Rattus norvegicus, UniProt P35439+Q00959); test: as above
# GluN1–1a A/A (GluN1/2A/2A), sequence (Q00959 23-1464, other chains not shown): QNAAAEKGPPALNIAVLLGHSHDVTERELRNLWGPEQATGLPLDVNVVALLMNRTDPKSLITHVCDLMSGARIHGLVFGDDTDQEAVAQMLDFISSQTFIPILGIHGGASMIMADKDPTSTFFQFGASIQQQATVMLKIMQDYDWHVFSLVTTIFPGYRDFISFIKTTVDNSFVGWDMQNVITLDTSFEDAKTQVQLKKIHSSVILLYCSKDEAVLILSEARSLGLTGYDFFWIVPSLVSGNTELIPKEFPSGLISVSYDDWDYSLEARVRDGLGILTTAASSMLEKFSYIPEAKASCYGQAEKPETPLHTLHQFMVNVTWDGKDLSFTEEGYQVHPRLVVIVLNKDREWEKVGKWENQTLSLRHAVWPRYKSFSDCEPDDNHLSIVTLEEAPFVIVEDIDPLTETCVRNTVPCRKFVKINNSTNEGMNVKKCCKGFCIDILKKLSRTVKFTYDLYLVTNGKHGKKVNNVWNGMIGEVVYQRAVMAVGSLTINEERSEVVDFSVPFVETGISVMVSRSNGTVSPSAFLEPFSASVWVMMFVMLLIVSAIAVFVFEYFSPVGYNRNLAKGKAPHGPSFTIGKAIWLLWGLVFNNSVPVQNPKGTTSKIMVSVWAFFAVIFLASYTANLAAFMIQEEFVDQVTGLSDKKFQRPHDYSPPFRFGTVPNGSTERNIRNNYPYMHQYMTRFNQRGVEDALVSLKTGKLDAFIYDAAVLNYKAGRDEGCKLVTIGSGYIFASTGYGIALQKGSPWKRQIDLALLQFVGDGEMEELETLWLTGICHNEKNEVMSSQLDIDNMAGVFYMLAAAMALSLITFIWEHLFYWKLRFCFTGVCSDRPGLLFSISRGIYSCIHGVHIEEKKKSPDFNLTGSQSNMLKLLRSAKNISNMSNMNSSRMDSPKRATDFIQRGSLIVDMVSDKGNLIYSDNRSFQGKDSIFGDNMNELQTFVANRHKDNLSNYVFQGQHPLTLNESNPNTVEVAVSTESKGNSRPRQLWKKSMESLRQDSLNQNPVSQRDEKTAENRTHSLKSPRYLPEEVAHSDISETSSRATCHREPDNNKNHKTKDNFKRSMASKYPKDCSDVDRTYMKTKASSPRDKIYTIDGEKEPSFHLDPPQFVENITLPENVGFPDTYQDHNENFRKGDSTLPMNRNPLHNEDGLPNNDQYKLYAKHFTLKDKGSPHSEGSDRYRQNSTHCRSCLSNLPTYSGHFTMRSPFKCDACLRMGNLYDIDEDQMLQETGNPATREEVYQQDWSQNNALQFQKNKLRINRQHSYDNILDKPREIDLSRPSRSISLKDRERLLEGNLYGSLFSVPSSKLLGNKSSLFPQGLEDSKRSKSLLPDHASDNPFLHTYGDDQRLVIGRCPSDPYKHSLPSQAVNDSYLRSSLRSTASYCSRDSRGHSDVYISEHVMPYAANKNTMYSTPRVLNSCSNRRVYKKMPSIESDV
# GluN1–1b BC1/BC2 = GluN1–1b BC1/BC2 (Rattus norvegicus, UniProt P35439+Q00959+Q00960, A876H/F846L/G856D/H848F/K857R/M851T/M860L/Q845K/V861L); test: as above
# GluN1–1b B/B = GluN1–1b B/B (Rattus norvegicus, UniProt P35439+Q00960); test: as above
# [2] = biological target: GluN1–1b A/A (GluN1/2A/2A) (Rattus norvegicus, UniProt P35439+Q00959); test: as above
# GluN1–1b A/A (GluN1/2A/2A), sequence (Q00959 23-1464, other chains not shown): as above
# GluN1–1a AC1/BC2 = GluN1–1a AC1/BC2 (Rattus norvegicus, UniProt P35439+Q00959+Q00960, A876H/F846L/G856D/H848F/K857R/M851T/M860L/Q845K/V861L); test: as above
# GluN1–1a BC1/BC2 = GluN1–1a BC1/BC2 (Rattus norvegicus, UniProt P35439+Q00959+Q00960, A876H/F846L/G856D/H848F/K857R/M851T/M860L/Q845K/V861L); test: as above
# GluN1–1a/2B = GluN1–1a/2B (Rattus norvegicus, UniProt P35439+Q00960); test: Two-electrode voltage-clamp recordings, Xenopus oocytes; conditions: agonist concentration-response, isoform 1a
# GluN1–1b AC1/AC2 = GluN1–1b AC1/AC2 (Rattus norvegicus, UniProt P35439+Q00959); test: Outside-out patch-clamp recordings, fast application
# GluN1–1a D/D = GluN1–1a D/D (Rattus norvegicus, UniProt P35439+Q62645); test: as above
# GluN1–1a D/D, sequence (Q62645 28-1323, other chains not shown): as the sequence (Q62645 28-1323, other chains not shown) above
# GluN1–1b BC1/DC2 = GluN1–1b BC1/DC2 (Rattus norvegicus, UniProt P35439+Q00959+Q00960+Q62645, A876H/F846L/G856D/H848F/K857R/M851T/M860L/Q845K/R869K/V861L/V866F); test: as above
# GluN1–1b AC1/BC2 = GluN1–1b AC1/BC2 (Rattus norvegicus, UniProt P35439+Q00959+Q00960, A876H/F846L/G856D/H848F/K857R/M851T/M860L/Q845K/V861L); test: as above
# [3] = biological target: GluN1–1a AC1/AC2 (GluN1/2AC1/2AC2) (Rattus norvegicus, UniProt P35439+Q00959); test: as above
# GluN1–1a BC1/DC2 = GluN1–1a BC1/DC2 (Rattus norvegicus, UniProt P35439+Q00959+Q00960+Q62645, A876H/F846L/G856D/H848F/K857R/M851T/M860L/Q845K/R869K/V861L/V866F); test: as above
# GluN1–1b DC1/DC2 = GluN1–1b DC1/DC2 (Rattus norvegicus, UniProt P35439+Q00959+Q62645, R869K/V866F); test: as above
# GluN1–1a DC1/DC2 = GluN1–1a DC1/DC2 (Rattus norvegicus, UniProt P35439+Q00959+Q62645, R869K/V866F); test: as above
# GluN1–1b D/D = GluN1–1b D/D (Rattus norvegicus, UniProt P35439+Q62645); test: as above
# GluN1–1b D/D, sequence (Q62645 28-1323, other chains not shown): as above
# [4] = 1 mM glutamate 3–5 ms, 100 μM glycine
# [5] = deactivation, two-exponential fit
# [6] = fitted percentage of the fast component
# [7] = weighted deactivation time constant
# [8] = deactivation, single-exponential fit
# GluN1–1a/2D, sequence (Q62645 28-1323, other chains not shown): as above
smiles,measurement,setting,value
COc1ccc(OCC2c3cc(OC)c(OC)cc3CCN2C(=O)c2cccc(Cl)c2)cc1 (stereo not drawn) [CIQ],Relative Imax,"GluN1–1a/2D; at 10 μM, relative to control, isoform 1a",227% and 227 ± 8%
same,Relative Imax,"GluN1–1a/2BC1/2DC2; at 10 μM, relative to control",139% and 139 ± 3%
same,Relative Imax,GluN1–1b/2B,91% and 91 ± 3%
same,Relative Imax,GluN1–1b/2BC1/2DC2,115% and 115 ± 3%
same,Relative Imax,GluN1–1b/2D,197% and 197 ± 8%
N[C@@H](CCC(=O)O)C(=O)O [glutamate],rise time (10–90%),GluN1–1a B/B; [4],14.9 ± 1.2 ms
same,τfast,GluN1–1a B/B; [5],240 ± 23 ms
same,τslow,GluN1–1a B/B; [5],1020 ± 72 ms
same,% fast,GluN1–1a B/B; [6],59 ± 5%
same,τw,GluN1–1a B/B; [7],"548 ± 45 ^*^,$ ms"
same,EC50,"GluN1–1a/2D; GluN1 isoform 1a, glutamate with 100 μM glycine, glycine with 300 μM glutamate",270 ± 10 nM
same,nH (Hill coefficient),"GluN1–1a/2D; agonist concentration-response, isoform 1a",1.7
same,rise time (10–90%),[1]; [4],3.9 ± 0.3 ms
same,τfast,"[1]; deactivation, single-exponential fit, 1 mM glutamate 3–5 ms, 100 μM glycine",87 ± 7 ms
same,τw,[1]; [7],"87 ± 7^#,$ ms"
same,rise time (10–90%),GluN1–1b BC1/BC2; [4],8.3 ± 1.6 ms
same,τfast,GluN1–1b BC1/BC2; [5],101 ± 15 ms
same,τslow,GluN1–1b BC1/BC2; [5],360 ± 89 ms
same,% fast,GluN1–1b BC1/BC2; [6],84 ± 6%
same,τw,GluN1–1b BC1/BC2; [7],"140 ± 10 ms and 138 ± 13 ^*^,$ ms"
same,nH (Hill coefficient),GluN1–1a/2BC1/2DC2; agonist concentration-response,1.4
same,rise time (10–90%),GluN1–1b B/B; [4],10.3 ± 1.5 ms
same,τfast,GluN1–1b B/B; [5],81 ± 8 ms
same,τslow,GluN1–1b B/B; [5],208 ± 49 ms
same,% fast,GluN1–1b B/B; [6],58 ± 12%
same,τw,GluN1–1b B/B; [7],"155 ± 19 ^*^,$ ms"
same,rise time (10–90%),[2]; [4],4.8 ± 0.3 ms
same,τfast,[2]; [8],56 ± 6 ms
same,τw,[2]; [7],"56 ± 6^#,$ ms"
same,rise time (10–90%),GluN1–1a AC1/BC2; [4],10.9 ± 6.2 ms
same,τfast,GluN1–1a AC1/BC2; [5],93 ± 27 ms
same,τslow,GluN1–1a AC1/BC2; [5],180 ± 62 ms
same,% fast,GluN1–1a AC1/BC2; [6],63 ± 19%
same,τw,GluN1–1a AC1/BC2; [7],"140 ± 10 ^*^,#,$ ms"
same,rise time (10–90%),GluN1–1a BC1/BC2; [4],15.1 ± 2.7 ms
same,τfast,GluN1–1a BC1/BC2; [5],205 ± 35 ms
same,τslow,GluN1–1a BC1/BC2; [5],1045 ± 129 ms
same,% fast,GluN1–1a BC1/BC2; [6],58 ± 8%
same,τw,GluN1–1a BC1/BC2; [7],"530 ± 60 ms and 533 ± 58 ^*^,$ ms"
same,nH (Hill coefficient),GluN1–1a/2B,1.6
same,rise time (10–90%),GluN1–1b AC1/AC2; [4],6.3 ± 2.8 ms
same,τfast,GluN1–1b AC1/AC2; [8],53 ± 7 ms
same,τw,GluN1–1b AC1/AC2; [7],"53 ± 7^#,$ ms"
same,rise time (10–90%),GluN1–1a D/D; [4],6.2 ± 0.7 ms
same,τfast,GluN1–1a D/D; [5],832 ± 146 ms
same,τslow,GluN1–1a D/D; [5],7436 ± 890 ms
same,% fast,GluN1–1a D/D; [6],24 ± 3%
same,τw,GluN1–1a D/D; [7],"5714 ± 458 ^*^,# ms"
same,rise time (10–90%),GluN1–1b BC1/DC2; [4],9.2 ± 1.3 ms
same,τfast,GluN1–1b BC1/DC2; [5],127 ± 31 ms
same,τslow,GluN1–1b BC1/DC2; [5],634 ± 132 ms
same,% fast,GluN1–1b BC1/DC2; [6],50 ± 15%
same,τw,GluN1–1b BC1/DC2; [7],"290 ± 120 ms and 288 ± 22 ^*^,#,$ ms"
same,rise time (10–90%),GluN1–1b AC1/BC2; [4],3.7 ± 0.5 ms
same,τfast,GluN1–1b AC1/BC2; [5],47 ± 4 ms
same,τslow,GluN1–1b AC1/BC2; [5],160 ± 25 ms
same,% fast,GluN1–1b AC1/BC2; [6],69 ± 12%
same,τw,GluN1–1b AC1/BC2; [7],"74 ± 5 ^*^,#,$ ms"
same,rise time (10–90%),[3]; [4],4.2 ± 0.9 ms
same,τfast,[3]; [8],78 ± 13 ms
same,τw,[3]; [7],"78 ± 13 ^*^,#,$ ms"
same,rise time (10–90%),GluN1–1a BC1/DC2; [4],10.9 ± 2.5 ms
same,τfast,GluN1–1a BC1/DC2; [5],516 ± 42 ms
same,τslow,GluN1–1a BC1/DC2; [5],3521 ± 446 ms
same,% fast,GluN1–1a BC1/DC2; [6],54 ± 6%
same,τw,GluN1–1a BC1/DC2; [7],"1770 ± 120 ms and 1767 ± 117 ^*^,#,$ ms"
same,rise time (10–90%),GluN1–1b DC1/DC2; [4],4.5 ± 0.7 ms
same,τfast,GluN1–1b DC1/DC2; [5],256 ± 92 ms
same,τslow,GluN1–1b DC1/DC2; [5],1399 ± 141 ms
same,% fast,GluN1–1b DC1/DC2; [6],14 ± 4%
same,τw,GluN1–1b DC1/DC2; [7],"1230 ± 90 ms and 1230 ± 86 ^*^,# ms"
same,rise time (10–90%),GluN1–1a DC1/DC2; [4],8.6 ± 4.8 ms
same,τfast,GluN1–1a DC1/DC2; [5],527 ± 225 ms
same,τslow,GluN1–1a DC1/DC2; [5],6912 ± 848 ms
same,% fast,GluN1–1a DC1/DC2; [6],17 ± 7%
same,τw,GluN1–1a DC1/DC2; [7],"5700 ± 560 ms and 5700 ± 561 ^*^,# ms"
same,rise time (10–90%),GluN1–1b D/D; [4],3.5 ± 0.4 ms
same,τfast,GluN1–1b D/D; [5],245 ± 32 ms
same,τslow,GluN1–1b D/D; [5],1609 ± 148 ms
same,% fast,GluN1–1b D/D; [6],40 ± 7%
same,τw,GluN1–1b D/D; [7],"992 ± 68 ^*^,# ms"
